The nature of this series: Human HepG2 cell viability assay in 384 well format. Type of series: toxicity, cell-based. On the set-up: dose 125 nL, time 70.5 hour; cytotoxicity at 70.5 h: concentration not given beside the values. Particulars: HepG2 cells, read-out: Inhibition.

Each structure is given as a SMILES string.

Cytotoxicity data for 101 compounds are collected here from ChEMBL document CHEMBL3507680, “University of Dundee, Gates Library screen for HepG2 cell viability”.

For `Cc1nccc(N2CCN(C3CCOCC3)CC(C(=O)N(C)C)C2)n1` (stereo unspecified), the cytotoxicity at 70.5 h was -13.5%.

As for `Cc1cc(Cc2ccc(F)cc2)cc(C2CCCNC2)n1` (stereo unspecified), the cytotoxicity at 70.5 h was 16.9%.

With `Cn1cc(CN2CCCCC2c2ccc(-c3cccc(Cl)c3)nc2)cn1` (stereo unspecified), the cytotoxicity at 70.5 h is -4.26%.

As for `Cc1ncsc1C(=O)N1CCC(c2ccc3c(NC(C)C)n[nH]c3n2)C1` (stereo unspecified), the cytotoxicity at 70.5 h was -15.9%.

For the compound `Cc1cc(N2CCN(C3CCOCC3)CC(C(=O)N(C)C)C2)ncn1` (stereo unspecified), the cytotoxicity at 70.5 h is -6.48%.

Regarding `CNC(=O)C1CN(C(C)C)CCN1c1nc(C)cc(C)n1` (stereo unspecified), the cytotoxicity at 70.5 h is -10.7%.

As for `c1cnc2c(CN3CCCCC3c3ccncn3)cnn2c1` (stereo unspecified), the cytotoxicity at 70.5 h was -8.22%.

As to `Cc1ccc(CC2COCCN(S(C)(=O)=O)C2)nc1` (stereo unspecified), the cytotoxicity at 70.5 h came out at 12.3%.

For the compound `CN1CCN(c2ncccn2)CC(C(=O)N(C)C)C1` (stereo unspecified), the cytotoxicity at 70.5 h is -5.5%.

Regarding `CN(C)C(=O)C1CN(c2ccncn2)CCN(C2CCOCC2)C1` (stereo unspecified), the cytotoxicity at 70.5 h came to 12.4%.

As for `CNc1ncccc1CN1CCN(C(C)=O)CC(C(N)=O)C1` (stereo unspecified), the cytotoxicity at 70.5 h was -4.74%.

Take `COCC(=O)N1CCC(C)(c2cc(O)[nH]n2)CC1`: the cytotoxicity at 70.5 h was 0.0821%.

Turning to `CC(C)C[C@H](N)COc1cccc(F)c1Oc1ccc(Cl)cc1`, the cytotoxicity at 70.5 h turned out to be 26.2%.

Take `Cc1ccc(Oc2c(F)cccc2OC[C@@H](N)CC(C)C)cc1`: the cytotoxicity at 70.5 h amounted to 23.8%.

Consider `O=C(Nc1cc(CCC2CCN(CCO)CC2)ccn1)c1ccccn1`, for which the cytotoxicity at 70.5 h stood at 45.9%.

For `CNC(=O)c1sc2ccccc2c1CC1CCCN1Cc1cnc(C)s1` (stereo unspecified), the cytotoxicity at 70.5 h was -10.5%.

As to `CCCC(=O)N1CCCC(C(=O)c2cnn(-c3ccc(F)cc3)c2N)C1` (stereo unspecified), the cytotoxicity at 70.5 h is -4.03%.

Consider `Cc1cc(C)nc(N2CCOC(c3cc(CCO)[nH]n3)C2)n1` (stereo unspecified), for which the cytotoxicity at 70.5 h is -8.46%.

In the case of `Cc1nc(NCc2nonc2C)cc(C(C)Cn2nc(C)c(C)c2C)n1` (stereo unspecified), the cytotoxicity at 70.5 h was -7.72%.

Turning to `Cc1nc(NCc2ccccc2)cc(C(C)Cn2nc(C)c(C)c2C)n1` (stereo unspecified), the cytotoxicity at 70.5 h is 3.51%.

On to `CCCn1nc(C)c(C(=O)N(C)[C@@H]2CC[C@@H](N3CCCC3)[C@@H]2O)c1C`, for which the cytotoxicity at 70.5 h is -5.14%.

For `NC(=O)C1(c2cnccn2)CCCN1C(=O)Cc1ccsc1` (stereo unspecified), the cytotoxicity at 70.5 h was -5.34%.

On to `Cc1nc2ccc(Cl)cn2c1CN1CCN(S(=O)(=O)N2CCCC2)CC1`, for which the cytotoxicity at 70.5 h was -4.72%.

On to `CN(C)c1cc(C2CCN(C(=O)c3cnn(C)c3)CC2)ccn1`, for which the cytotoxicity at 70.5 h was -4.9%.

`c1cnc(C2CCCN(Cc3ccsc3)C2)cn1` (stereo unspecified): the cytotoxicity at 70.5 h was -6.09%.

With `CC(=O)NCc1cncc(C2CCCN2C2CCOCC2)n1` (stereo unspecified), the cytotoxicity at 70.5 h is -5.7%.

Consider `CC(=O)N1CCCC(c2nnc3n2CCN(C(=O)C2CCCCC2)C3)C1` (stereo unspecified), for which the cytotoxicity at 70.5 h is -8.2%.

On to `CCn1c(C)nc2cc(NC(=O)C3CN(C(C)=O)C3)ccc21`, for which the cytotoxicity at 70.5 h was -5.1%.

As to `Cc1ncc(-c2ccncc2)c(C2CCN(C(=O)c3ccno3)CC2)n1`, the cytotoxicity at 70.5 h was -7.69%.

Turning to `CS(=O)(=O)c1cncnc1C1CCCN(C(=O)Nc2ccccc2F)C1` (stereo unspecified), the cytotoxicity at 70.5 h was -11.6%.

On to `Nc1nc(N)c2c(n1)OC1(CCN(Cc3nccs3)C1)C2` (stereo unspecified), for which the cytotoxicity at 70.5 h was -6.73%.

Turning to `Nc1nc(N)c2c(n1)OC1(COCCN(Cc3nccs3)C1)C2` (stereo unspecified), the cytotoxicity at 70.5 h was -10.4%.

As for `O=C(O)c1ccc(=O)n(CC(c2ccc(F)cc2)N2CCCCCC2)c1` (stereo unspecified), the cytotoxicity at 70.5 h is -7.77%.

Regarding `Cc1oc2c(c1C(=O)N1CC[C@H](O)[C@]3(CCCO3)C1)CCCC2`, the cytotoxicity at 70.5 h was -5.7%.

As for `O=C(c1cncs1)N1CCOC(c2cc(CCO)[nH]n2)C1` (stereo unspecified), the cytotoxicity at 70.5 h was -7.42%.

Regarding `CNC(=O)C1(CCCc2cnccn2)CCN1CCc1ccccc1` (stereo unspecified), the cytotoxicity at 70.5 h is -2.58%.

`Cc1cc(C(=O)N(C)C)nc(C2(C)CCCN2c2ccccc2)n1` (stereo unspecified): the cytotoxicity at 70.5 h is -2.68%.

As for `CN(C)C(=O)C1(c2cnccn2)CCCN1C(=O)Cc1ccsc1` (stereo unspecified), the cytotoxicity at 70.5 h was -5.5%.

Regarding `Cc1nc(NCCO)cc(C(C)Cn2nc(C)c(C)c2C)n1` (stereo unspecified), the cytotoxicity at 70.5 h is -3.69%.

Consider `CN(C)C(=O)C1(c2cnccn2)CCCN1C(=O)Cc1ccccc1` (stereo unspecified), for which the cytotoxicity at 70.5 h was -5.41%.

Turning to `Cn1nccc1C(=O)N1CCC(c2nnsc2S(C)(=O)=O)CC1`, the cytotoxicity at 70.5 h is -5.74%.

Regarding `O=C(CN1CCC2(CC1)NC(=O)c1cc(Br)ccc1N2)NC1CC1`, the cytotoxicity at 70.5 h was -1.52%.

For the compound `O=C1NC2(CCCN(C(=O)CCn3cncn3)C2)Oc2ccccc21` (stereo unspecified), the cytotoxicity at 70.5 h was -4.04%.

As for `COc1ccc(C(C)NCc2scnc2C)cc1Cn1cccn1` (stereo unspecified), the cytotoxicity at 70.5 h stood at 0.409%.

Consider `O=C(c1cc(Cl)c[nH]1)N(CCCO)Cc1cccnc1`, for which the cytotoxicity at 70.5 h is -8.59%.

`Cc1cc(CC(=O)N2CCc3cc(Br)sc3C2)n[nH]1`: the cytotoxicity at 70.5 h came out at 12.5%.

In the case of `CC(Cn1cccn1)NCc1cccc(C#N)c1` (stereo unspecified), the cytotoxicity at 70.5 h is -3.1%.

Regarding `COCC(=O)Nc1ccnc(OCCN(C)C)c1`, the cytotoxicity at 70.5 h came out at 4.63%.

As for `CCOc1ccc(N(CCC#N)C(=O)c2ccnc(SC)c2)cc1`, the cytotoxicity at 70.5 h amounted to 9.66%.

With `O=S(=O)(Nc1ccc(N2CCOCC2)cc1)c1cccc(F)c1`, the cytotoxicity at 70.5 h is -1.37%.

For the compound `NC(=O)CN(CC(N)=O)Cc1cccc(Oc2ccccc2)c1`, the cytotoxicity at 70.5 h was determined as 7.82%.

For `Cc1csc(N2CCCN(C(=O)c3nccnc3N)CC2)n1`, the cytotoxicity at 70.5 h was -0.698%.

On to `COc1cc(CNc2cnn(C(C)(C)C)c(=O)c2Cl)ccn1`, for which the cytotoxicity at 70.5 h came to 1.57%.

Consider `CCC(=O)N(CC(N)=O)Cc1cccc(Oc2ccccc2)c1`, for which the cytotoxicity at 70.5 h was 0.0156%.

Consider `COC(C)C(=O)N(CC(N)=O)Cc1cccc(Oc2ccccc2)c1` (stereo unspecified), for which the cytotoxicity at 70.5 h was -2.39%.

Take `Cc1ccc(C(C)NC(=O)N2CCN(C(=O)CC(F)(F)F)CC2)o1` (stereo unspecified): the cytotoxicity at 70.5 h was -3.77%.

For the compound `Cc1cnn(CC2CCN(CC(O)c3ccccc3)CC2)c1` (stereo unspecified), the cytotoxicity at 70.5 h was 13.9%.

Take `Cc1cnn(CC2CCN(CC(O)COc3ccccc3)CC2)c1` (stereo unspecified): the cytotoxicity at 70.5 h is 4.78%.

In the case of `Cc1cnn(CC2CCN(CC(O)c3ccc(F)cc3)CC2)c1` (stereo unspecified), the cytotoxicity at 70.5 h was -0.648%.

Turning to `Cc1cnn(CC2CCN(CC(O)c3ccccc3Cl)CC2)c1` (stereo unspecified), the cytotoxicity at 70.5 h was -3.1%.

With `CCS(=O)(=O)NCCNc1c(C#N)cnc2c(F)cc(F)cc12`, the cytotoxicity at 70.5 h is -0.0012%.

For `CN(C)C(=O)c1cccc(NC(=O)Cc2cc(F)ccc2F)n1`, the cytotoxicity at 70.5 h was determined as 1.76%.

For the compound `N#CCCCS(=O)(=O)NC(=O)c1ccccc1F`, the cytotoxicity at 70.5 h was -0.732%.

For the compound `CCc1ccccc1C(=O)NS(=O)(=O)CCCC#N`, the cytotoxicity at 70.5 h worked out at 10.5%.

With `CCC(CC)(CNC(C)=O)NC(C)c1ccccc1` (stereo unspecified), the cytotoxicity at 70.5 h is 3%.

Consider `CCC(CC)(CN)NC(C)c1ccccc1` (stereo unspecified), for which the cytotoxicity at 70.5 h is -7.08%.

Turning to `CCOc1cccnc1C(=O)N1CCCN(c2nc(C)cs2)CC1`, the cytotoxicity at 70.5 h is -3.42%.

Take `COc1cc(CNC(C)c2nnc3n2CCC3)cc(OC)c1` (stereo unspecified): the cytotoxicity at 70.5 h was -9.55%.

Take `CCCN1CCN(C(=O)c2cccnc2)CC1`: the cytotoxicity at 70.5 h was -14.6%.

`CC(C)C(NC(=O)c1nc(N2CCOCC2)ncc1Cl)c1cccs1` (stereo unspecified): the cytotoxicity at 70.5 h is -9.67%.

Take `CC(C)C(NC(=O)c1ccc(N2CCOCC2)nc1)c1cccs1` (stereo unspecified): the cytotoxicity at 70.5 h was -9.4%.

Take `O=C(Nc1c(N2CCCC2)cccc1N1CCCC1)c1cnccn1`: the cytotoxicity at 70.5 h is -14.4%.

Regarding `O=C(CCn1cncn1)NCC1CCS(=O)(=O)C1` (stereo unspecified), the cytotoxicity at 70.5 h is -12.4%.

On to `CC(Sc1nncn1C)C(=O)NCCCOc1ccc(F)cc1` (stereo unspecified), for which the cytotoxicity at 70.5 h is -22.5%.

In the case of `N#Cc1ccccc1OCCN1CCCCC1C(=O)N1CCOCC1` (stereo unspecified), the cytotoxicity at 70.5 h was found to be 7.77%.

In the case of `O=C1OCCN1CCSc1nnnn1CC(F)(F)F`, the cytotoxicity at 70.5 h was -5.39%.

As to `CCCNC(=O)C[S+]([O-])Cc1csc(C2CCCCC2)n1` (stereo unspecified), the cytotoxicity at 70.5 h was -10.9%.

For the compound `CC(C)c1nc2n(n1)CC(Nc1ncnc3c1CCC3)CC2` (stereo unspecified), the cytotoxicity at 70.5 h was -13.9%.

Turning to `CCN(CC)c1ncc(Cl)c(C(=O)NC2CCc3nccn3C2)n1` (stereo unspecified), the cytotoxicity at 70.5 h was -13.5%.

For the compound `Cn1c(CO)cnc1SC(C(N)=O)c1ccccc1` (stereo unspecified), the cytotoxicity at 70.5 h was -15.2%.

`Cn1c(CO)cnc1SC(C(=O)NC1CC1)c1ccccc1` (stereo unspecified): the cytotoxicity at 70.5 h was -8.64%.

On to `O=C(NCc1ccc(CN2CCCC2)cc1)NC1(CO)CCCC1`, for which the cytotoxicity at 70.5 h was 2.2%.

On to `CCN(CC)c1ncc(Cl)c(C(=O)NC2CC2)n1`, for which the cytotoxicity at 70.5 h is -0.0542%.

As to `CCC(Sc1ncc(CO)n1C)c1ccccc1` (stereo unspecified), the cytotoxicity at 70.5 h was -10%.

Regarding `COc1ccc(N(C)C(=O)C2CN(C)CCO2)cc1Cl` (stereo unspecified), the cytotoxicity at 70.5 h is 8.7%.

Regarding `CN1CCOC(C(=O)N(C)c2ccc3c(c2)CCO3)C1` (stereo unspecified), the cytotoxicity at 70.5 h was -18.1%.

In the case of `CN(C)c1cccc(C(=O)N2CCCc3cc(OC(F)(F)F)ccc32)c1`, the cytotoxicity at 70.5 h was -9.8%.

Regarding `CCCOc1ccc(CN)c(OC(F)F)c1`, the cytotoxicity at 70.5 h was -3.13%.

As for `COc1ccnc(N2CCC(OCCN3CCCCC3)C2)n1` (stereo unspecified), the cytotoxicity at 70.5 h is -2.49%.

In the case of `Cc1nnc(CN2CCCCC2c2nc(-c3ccccc3)no2)s1` (stereo unspecified), the cytotoxicity at 70.5 h is -8.42%.

For `CN(C)c1ccc(C(=O)N2CCCc3cc(OC(F)(F)F)ccc32)cn1`, the cytotoxicity at 70.5 h was -5.84%.

Regarding `CCCN1CCCN(C(=O)c2ccc(Oc3cccnc3)cc2)CC1`, the cytotoxicity at 70.5 h was -8.42%.

Regarding `O=C(CCS(=O)(=O)C1CCCC1)N1CCCC(n2ccnc2)C1` (stereo unspecified), the cytotoxicity at 70.5 h was found to be 6.79%.

Take `CC(C)(C)C(O)CN1CCN(Cc2cccc(C#N)c2)CC1` (stereo unspecified): the cytotoxicity at 70.5 h worked out at 14.7%.

In the case of `CC(C)S(=O)(=O)CC(=O)N1CCCC(n2ccnc2)C1` (stereo unspecified), the cytotoxicity at 70.5 h is -0.47%.

As to `Cn1cc(C(=O)N2CCN(c3ccc(F)cc3)CC2)ccc1=O`, the cytotoxicity at 70.5 h came to 2.77%.

On to `CC(C)(C)C(O)CN1CCN(Cc2ccc(C#N)cc2)CC1` (stereo unspecified), for which the cytotoxicity at 70.5 h was -6.98%.

Take `CCCc1cc(C(=O)NC(c2ccccc2)c2n[nH]c(C)n2)[nH]n1` (stereo unspecified): the cytotoxicity at 70.5 h was -7.51%.

For `Cc1cc(N2CCN(Cc3cn(C)nc3C)CC2)cc(C2CCNC2)n1` (stereo unspecified), the cytotoxicity at 70.5 h was -5.44%.

For `COc1cc2c(cc1CNC(Cc1cccs1)c1nccs1)OCCO2` (stereo unspecified), the cytotoxicity at 70.5 h was -3.19%.

`c1coc(CN2CCC(c3ccc4c(c3)OCO4)CC2)c1`: the cytotoxicity at 70.5 h is -3.77%.
